Reference: article PMC7555970, “Design, Synthesis and Biological Evaluation of Biphenylglyoxamide-Based Small Molecular Antimicrobial Peptide Mimics as Antibacterial Agents” (International Journal of Molecular Sciences, 2020)
≈ marks a conversion by molar mass, not a printed value. Like-named read-outs stand apart in the source and are kept apart here.

Key:
[1] = test system: S. aureus (SA38); assay: Minimum inhibitory concentration (MIC) assay against S. aureus; type: cell-based, Staphylococcus aureus
Method: (§1) The antimicrobial activity of the compounds was evaluated by MIC assay using the procedure described by Clinical and Laboratory Standards Institute (CLSI). A single colony of bacteria was cultured overnight in trypticase soy broth (TSB; Oxoid, Basingstoke, UK) at 37 °C with shaking. The resulting bacterial culture was collected by centrifugation and resuspended in TSB twice. The optical density (OD) of the resulting culture was adjusted to OD660 = 0.1 in TSB (which is equivalent to 10^8 colony forming unit (CFU)/mL bacteria). It was further diluted to 10^6 CFU/mL in TSB. 100 µL of the bacterial solution was then added to wells of a 96-well plate (Costar; Sigma-Aldrich, St Louis, MO, USA) containing 100 µL serially diluted peptide mimic, with final concentration ranging from 1 to 250 µM. Wells with bacteria but no compound were used as negative control while wells with only media were set as blank. The plates were then wrapped with parafilm to prevent evaporation and incubated with shaking at 120 rpm at 37 °C for 18–24 h, and the data were recorded by measuring the OD value at 660 nm using a FLUOstar Omega (BMG Labtech, Mornington, Victoria, Australia) microplate reader. […] Each experiment was performed in triplicate and was repeated in three independent experiments.

[2] = test system: MRC-5 normal human lung fibroblasts; assay: MTT toxicity assay; type: cell-based; conditions: 72 h drug incubation, read-out: IC50 against MRC-5 normal human lung fibroblasts
Method: The toxicity of the compounds was measured using an MTT (3-(4,5-dimethylthiazol-2-yl)-2,5-diphenyltetrazolium bromide) (Sigma Aldrich, St Louis, MO, USA) colorimetric assay against normal human lung fibroblasts MRC-5 cells. The cells were cultured in minimal essential medium (MEM; Sigma Aldrich, St Louis, MO, USA) containing 10% foetal bovine serum (FBS). The cells were maintained at 37 °C in 5% CO2 as an adherent monolayer and was passaged upon reaching confluence by standard cell culture techniques. MRC-5 cells were seeded at 5000 cells/well in 96-well plates to ensure full confluence (quiescence) and left overnight to adhere to the plate wells. The adherent cells were treated with 1–500 µM of compounds by dissolving in DMSO and serially diluting with media. The final concentration of DMSO was 0.5% (v/v). After 72 h drug incubation, […] stock MTT solution (5 mg/mL) was added and the cells were incubated for another 3.5–4 h. MTT solution-containing media was carefully aspirated without displacing the purple crystals from the bottom and […] acid-isopropanol was added to all wells and mixed slowly by shaking with an orbital shaker to dissolve the dark blue crystals. The metabolic activity was detected by spectrophotometric analysis by assessing the read absorbance (590/620 nm) on an EnSight plate reader (PerkinElmer, Waltham, MA, USA) and cell viability was expressed as a percentage of untreated control cells. The determination of IC50 values was performed using GraphPad Prism 6 (GraphPad, San Diego, CA, USA). Each experiment was performed in triplicate and was repeated in three independent experiments.

[3] = test system: P. aeruginosa (PA01); assay: Minimum inhibitory concentration (MIC) assay against P. aeruginosa; type: cell-based; conditions: Pseudomonas aeruginosa
Method: as §1

[4] = test system: E. coli (K12); assay: Minimum inhibitory concentration (MIC) assay against E. coli; type: cell-based; conditions: Escherichia coli
Method: as §1

[5] = test system: established S. aureus biofilms; assay: Biofilm disruption assay (crystal violet staining), S. aureus; type: cell-based, Staphylococcus aureus; conditions: any tested concentration (1×, 2× and 4× MIC), 24 h treatment
Method: Bacterial cultures (S. aureus and E. coli) were grown in Muller Hinton broth (MHB; Oxoid, Basingstoke, UK) media overnight at 37 °C with shaking at 120 rpm. Cultures were diluted (1:20) in MHB medium and 200 µL aliquots were dispensed to wells in a flat bottom 96-well plate (Costar; Sigma-Aldrich, St Louis, MO, USA). Biofilm was then grown in the 96-well plate at 37 °C overnight. After that, loosely bound cells were washed away with 1x phosphate-buffered saline (PBS) and cultures were then supplemented with different concentrations of test compounds dissolved in DMSO and incubated for a further 24 h with shaking at 120 rpm. Biofilms adhered on the plate substratum were quantified using crystal violet staining as described previously. The experiment was performed in triplicate.

Row | Compound | MIC [1] [µM] | IC50 ([2]; Homo sapiens, MRC5, 72 h) [µM] | MIC ([1]; Staphylococcus aureus) [µM] | also measured
1 | CCCCCCCCS(=O)(=O)Nc1ccc(-c2ccccc2)cc1C(=O)C(=O)NCCCN(C)C [Compound 11a, N-(3-(Dimethylamino)propyl)-2-(4-(octylsulfonamido)-[1,1’-biphenyl]-3-yl)-2-oxoacetamide] | 24 (≈ 12 µg/mL) | < 30 | – | IC50 [2]: 28.2 µM
2 | CCCCCCCCS(=O)(=O)Nc1ccc(-c2ccc(F)cc2)cc1C(=O)C(=O)NCCCN(C)C [Compound 11b, N-(3-(Dimethylamino)propyl)-2-(4’-fluoro-4-(octylsulfonamido)-[1,1’-biphenyl]-3-yl)-2-oxoacetamide] | 16 (≈ 8.31 µg/mL) | – | – | –
3 | CCCCCCCCS(=O)(=O)Nc1ccc(-c2ccc(Cl)cc2)cc1C(=O)C(=O)NCCCN(C)C [Compound 11c, 2-(4’-Chloro-4-(octylsulfonamido)-[1,1’-biphenyl]-3-yl)-N-(3-(dimethylamino)propyl)-2-oxoacetamide] | 16 (≈ 8.58 µg/mL) | – | – | –
4 | CCCCCCCCS(=O)(=O)Nc1ccc(-c2ccc3ccccc3c2)cc1C(=O)C(=O)NCCCN(C)C [Compound 11d, N-(3-(Dimethylamino)propyl)-2-(5-(naphthalen-2-yl)-2-(octylsulfonamido)phenyl)-2-oxoacetamide] | 16 (≈ 8.83 µg/mL) | – | – | –
5 | CCCCCCCCS(=O)(=O)Nc1ccc(CCCC)cc1C(=O)C(=O)NCCCN(C)C [Compound 11e, 2-(5-Butyl-2-(octylsulfonamido)phenyl)-N-(3-(dimethylamino)propyl)-2-oxoacetamide] | 63 (≈ 30.3 µg/mL) | – | – | –
6 | CCCCS(=O)(=O)Nc1ccc(-c2ccccc2)cc1C(=O)C(=O)NCCCN(C)C [Compound 12a, 2-(4-(Butylsulfonamido)-[1,1’-biphenyl]-3-yl)-N-(3-(dimethylamino)propyl)-2-oxoacetamide] | – | – | > 250 | –
7 | CCCCCCCCS(=O)(=O)Nc1ccc(-c2ccccc2)cc1C(=O)C(=O)NCCCN(C)C [Compound 13a, N,N-Dimethyl-3-(2-(4-(octylsulfonamido)-[1,1’-biphenyl]-3-yl)-2-oxoacetamido)propan-1-aminium chloride] | – | – | 16 | IC50 [2]: 25 µM
8 | CCCCCCCCS(=O)(=O)Nc1ccc(-c2ccc(F)cc2)cc1C(=O)C(=O)NCCCN(C)C [Compound 13b, 3-(2-(4’-Fluoro-4-(octylsulfonamido)-[1,1’-biphenyl]-3-yl)-2-oxoacetamido)-N,N-dimethylpropan-1-aminium chloride] | – | – | 16 | –
9 | CCCCCCCCS(=O)(=O)Nc1ccc(-c2ccc(Cl)cc2)cc1C(=O)C(=O)NCCCN(C)C [Compound 13c, 3-(2-(4’-Chloro-4-(octylsulfonamido)-[1,1’-biphenyl]-3-yl)-2-oxoacetamido)-N,N-dimethylpropan-1-aminium chloride] | – | 25.5 | 16 | –
10 | CCCCCCCCS(=O)(=O)Nc1ccc(-c2ccc3ccccc3c2)cc1C(=O)C(=O)NCCCN(C)C [Compound 13d, N,N-Dimethyl-3-(2-(5-(naphthalen-2-yl)-2-(octylsulfonamido)phenyl)-2-oxoacetamido)propan-1-aminium chloride] | – | – | 8 | IC50 [2]: 19.7 µM
11 | CCCCCCCCS(=O)(=O)Nc1ccc(CCCC)cc1C(=O)C(=O)NCCCN(C)C [Compound 13e, 3-(2-(5-Butyl-2-(octylsulfonamido)phenyl)-2-oxoacetamido)-N,N-dimethylpropan-1-aminium chloride] | – | 23.6 | 32 | –
12 | CCCCS(=O)(=O)Nc1ccc(-c2ccccc2)cc1C(=O)C(=O)NCCCN(C)C.Cl [Compound 14a, 3-(2-(4-(Butylsulfonamido)-[1,1’-biphenyl]-3-yl)-2-oxoacetamido)-N,N-dimethylpropan-1-aminium chloride] | > 250 | – | – | –
13 | CCCCCCCCS(=O)(=O)Nc1ccc(-c2ccccc2)cc1C(=O)C(=O)NCCC[N+](C)(C)C [Compound 15a, N,N,N-Trimethyl-3-(2-(4-(octylsulfonamido)-[1,1’-biphenyl]-3-yl)-2-oxoacetamido)propan-1-aminium iodide] | – | 50.7 | 16 | MIC [3]: 125 µM; MIC [4]: 32 µM
14 | CCCCCCCCS(=O)(=O)Nc1ccc(-c2ccc(F)cc2)cc1C(=O)C(=O)NCCC[N+](C)(C)C [Compound 15b, 3-(2-(4’-Fluoro-4-(octylsulfonamido)-[1,1’-biphenyl]-3-yl)-2-oxoacetamido)-N,N,N-trimethylpropan-1-aminium iodide] | – | 190 | 16 | MIC [3]: 63 µM; MIC [4]: 32 µM
15 | CCCCCCCCS(=O)(=O)Nc1ccc(CCCC)cc1C(=O)C(=O)NCCC[N+](C)(C)C [Compound 15e, 3-(2-(5-Butyl-2-(octylsulfonamido)phenyl)-2-oxoacetamido)-N,N,N-trimethylpropan-1-aminium iodide] | – | 101 | 16 | MIC [3]: > 250 µM; MIC [4]: > 250 µM
16 | CCCCS(=O)(=O)Nc1ccc(-c2ccccc2)cc1C(=O)C(=O)NCCC[N+](C)(C)C [Compound 16a, 3-(2-(4-(Butylsulfonamido)-[1,1’-biphenyl]-3-yl)-2-oxoacetamido)-N,N,N-trimethylpropan-1-aminium iodide] | – | – | > 250 | –
17 | CCCCCCCCS(=O)(=O)Nc1ccc(-c2ccc(Cl)cc2)cc1C(=O)C(=O)NCCCNC(=N)N.Cl [Compound 22c, 2-(4’-Chloro-4-(octylsulfonamido)-[1,1’-biphenyl]-3-yl)-N-(3-guanidinopropyl)-2-oxoacetamide hydrochloride] | – | 95 | 8 | MIC [3]: 250 µM; disruption of preformed S. aureus biofilms [5]: failed to disrupt any; MIC [4]: 63 µM
18 | CN(C)CCCNC(=O)C(=O)c1cc(-c2ccccc2)ccc1NC(=O)c1ccc2ccccc2c1.Cl [Compound 26, 3-(2-(4-(2-Naphthamido)-[1,1’-biphenyl]-3-yl)-2-oxoacetamido)-N,N-dimethylpropan-1-aminium chloride] | > 250 | – | – | –
19 | C[N+](C)(C)CCCNC(=O)C(=O)c1cc(-c2ccccc2)ccc1NC(=O)c1ccc2ccccc2c1 [Compound 27, 3-(2-(4-(2-Naphthamido)-[1,1’-biphenyl]-3-yl)-2-oxoacetamido)-N,N,N-trimethylpropan-1-aminium iodide] | – | – | 32 | –
